Laboratory results taken from patent US5627156A, “Polypeptide agonists for human interleukin-8” (University of Nebraska Board of Regents, priority 1994, dated 1997).
Where no end group is shown, it is not given here.

Key:
[1] = test system: peripheral blood cells (PMNs, monocytes, lymphocytes); assay: In vivo peripheral blood (PBL) cellularity after ip injection; design: species or system C57BL/6 mice; conditions: single ip injection
Description: (§1) A stock solution of 5 mg/ml of Analog 1 was prepared using Dulbecco's phosphate buffered saline D-PBS. The solution was made 5× to compensate for the injection of 0.2 ml ip. The mice were dosed at various times with various doses of analog 1. The ip administration was with a volume of 0.2 ml. In addition, excipient control animals were injected.
(§2) The mice used for the study were C57BL/6 females, which were obtained from Jackson Laboratories. The mice used in these studies were at 8-10 weeks of age and weighed 15-18 g. The mice were housed in conventional cages, fed pelleted food and given water ad libitum.
At various times following injection of Analog 1 the mice were bled from retinal orbital plexus with 40 μl removed into heparanized capillary tubes and the blood analyzed using a Serona Baker 9000 Blood analyzer. In addition, blood films were made and differentials undertaken on at least 200 cells/sample.

[2] = test system: peritoneal cells (PMNs, monocytes/macrophages, lymphocytes); assay: In vivo chemotactic activity into the peritoneum after ip injection; design: species or system C57BL/6 mice
Description: as §1, §2
The mice were sacrificed by ether overdose, the ventral skin reflected and the peritoneum lavaged with three 5 ml lavages of calcium-, magnesium-freeHBSS. At one, two, four, eight and 24 hours, following injection, three to five mice and/or control mice were lavaged and the cells collected in 15 ml tubes. The peritoneal cells were then centrifuged and counted. In addition, a differential was done on the peritoneal cells in a cytospin preparation. For the cytospin, 25 μl of bovine albumin (Sigma Lot #70H0183) was first placed in the bottom of the chamber, and 100 μl of cell suspension (100,000 cells) added. It was spun at 1000 rpm for 5 minutes and then left to dry. Next, they were placed in leukostat fixative solution for 5 seconds followed by 45 seconds in Leukostat solution 1 and 45 seconds in Leukostat solution 2 and finally washed in deionized H2 O for 5 seconds and allowed to dry. The slides were analyzed under microscope for differentials.

[3] = test system: Polymorphonuclear leukocytes (PMNs); assay: Neutrophil Ca release by flow cytometry (Fluo-3); assay type: cell-based, human
Description: Polymorphonuclear leukocytes (≥95% neutrophils, PMNs) were isolated from heparinized (10 U/ml) blood collected from healthy volunteers. Erythrocytes were removed by 6% dextran sedimentation for 30 minutes at room temperature, and then the supernatant was subjected to Ficoll (Ficoll-Paque, Pharmacia LKB, Uppsala, Sweden) density gradient centrifugation. PMNs were obtained from the pellet. Contaminated erythrocytes were eliminated by one cycle of hypotonic lysis. After an additional washing step the cells were counted and adjusted to a final concentration of 5×10^6 /ml in RPMI 1640 (Gibco, Grand Island, N.Y.). Fluo-3 Loading--The loading procedure with Fluo-3 (Molecular Probes, Eugene, Oreg.) was carried out with PMNs suspended at a density of 5×10^6 /ml in fresh RPMI 1640 containing 2.0 μM Fluo-3 AM (prediluted in dimethyl sulfoxide; Sigma Chemicals) in polypropylene tubes (Falcon 2063, Becton Dickinson). […]
Measurement of [Ca^2+ ] in Flow Cytometry--Before addition of the stimuli the fluorescence channel of the FAGScan Plus (Becton Dickinson) was adjusted to find the basal fluorescence level of loaded but unstimulated PMNs. The samples were excited by an argon laser at 488 nm and emission was measured at 525 nm (green fluorescence, channel FL1). […] The fluorescence of Fluo-3-loadedcells was measured in arbitrary fluorescence units of mean channel fluorescence (channel FL1). […]

[4] = Biological activity of the analog compared to analog 1 (test not specified); conditions: C-terminally truncated, residues 4 to 17
Description: The biological activity of an analog of the invention is determined by comparing the analog with naturally occurring IL-8.

[5] = test system: receptor sites on neutrophils; conditions: cited from earlier work

Substance: ELRCQCIKTYSKPFHPK (cysteine pairing not given here) [Analog 1, structural mimic of IL-8 from amino acid residues 4 to 20]
- PBL cellularity ([1]; FIG. 2): significant increase
- frequency of PMNs in the peripheral blood ([1]; FIG. 5): increase
- absolute number of PMNs and monocytes in the peripheral blood ([1]; FIG. 6): significant increase
- kinetics of the in vivo chemotactic response in the peritoneum ([2]; ip injection of 10 μg, FIG. 7): greatest increase observed was in the number of macrophages and PMNs
- primary cell type elicited in the peritoneum ([2]; ip injection, FIG. 3): PMNs
- increase in PMN into the peritoneum ([2]; ip injection, FIG. 4): four-fold
- increase in monocyte/macrophages into the peritoneum ([2]; ip injection, FIG. 4): two-fold
- dose of optimal activity on peritoneal cellularity ([2]; single ip injection, 0.1-500 μg/animal, FIG. 1): 10 μg/animal
- neutrophil Ca concentration ([3]; FIG. 10A and B, concentration not given): induced a change in neutrophil Ca concentrations

Substance: Glu-Leu-Arp-Cys-Gln-Cys-Ile-Lys-Thr-Tyr-Ser-Lys-Pro-Phe (ELRCQCIKTYSKPF) [Analog 2, structural mimic of human IL-8 from amino acid residues 4 to 17]
- activity compared to analog 1 [4]: slight loss of activity

Substance: Interleukin 8 [IL-8]
- Kd [5]: 0.2 nM
- neutrophil Ca concentration ([3]; 77 amino acid IL-8 at 10^-6 M, FIG. 8B): the majority of neutrophils showed an increase in calcium concentration
